One series concerns the target T1, ALK2 (Homo sapiens, UniProt Q04771).
T1 construct: purchased Life Technologies (Drug Discovery and Development Services, Madison, Wis.)
T1 sequence (Q04771 21-509): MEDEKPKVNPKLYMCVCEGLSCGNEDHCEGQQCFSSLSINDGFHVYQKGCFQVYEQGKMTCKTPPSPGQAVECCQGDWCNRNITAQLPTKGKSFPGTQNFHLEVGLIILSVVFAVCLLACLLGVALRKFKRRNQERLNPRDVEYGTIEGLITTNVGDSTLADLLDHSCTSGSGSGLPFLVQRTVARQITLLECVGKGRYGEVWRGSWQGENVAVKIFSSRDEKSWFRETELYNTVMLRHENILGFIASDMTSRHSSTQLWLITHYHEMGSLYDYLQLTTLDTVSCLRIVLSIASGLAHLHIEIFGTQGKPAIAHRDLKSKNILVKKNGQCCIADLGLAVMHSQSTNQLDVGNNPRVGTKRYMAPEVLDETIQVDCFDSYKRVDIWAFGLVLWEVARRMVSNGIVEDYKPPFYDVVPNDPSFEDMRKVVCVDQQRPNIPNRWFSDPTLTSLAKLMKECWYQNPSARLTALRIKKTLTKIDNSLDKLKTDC
The series can be described thus: ALK2 inhibition, LanthaScreen binding assay. The protocol: (§1) Biochemical assays to measure the inhibitory effects of the compounds were performed by the Drug Discovery and Development Services at Life Technologies (Madison, Wis.). JAK2 kinase assays were performed using Z′-LYTE® technology, while ALK2 inhibition was tested using a LanthaScreen® binding assay.
(In TR-FRET formats the signal depends on donor and acceptor labels being close together.)

Series [1] in a line: Pharmacokinetic profile, IV and PO administration. The format is in vivo, female rats. Further details: AUC 0-inf: concentration or dose not given beside the values. The following applies: for AUC 0-inf / Cmax / Tmax / half-life: female, rat, plasma; for AUC 0-inf: read-out: AUC 0-inf; for Cmax: read-out: Cmax; for Tmax: read-out: Tmax; for half-life: read-out: t½ (converted).

The next series concerns the target T2, JAK2 kinase (Homo sapiens, UniProt O60674).
T2 construct: purchased Life Technologies (Drug Discovery and Development Services, Madison, Wis.)
In words: JAK2 kinase assay, Z'-LYTE technology. Format: biochemical. The protocol:
as §1

Another series relates to hepcidin expression. In words: Liver hepcidin expression in mice after single oral dose, real-time RT-PCR. The format is in vivo. The following applies: single oral dose 250 mg/kg, liver mRNA after six hours. The protocol:
Hepcidin expression in the mice treated with compounds 4 and 12 was compared to hepcidin expression in mice treated with compound A. In this experiment, mice were treated orally with a single dose of test compound. After six hours, livers were removed from euthanized animals and RNA extracted. Hepcidin mRNA levels were determined by real-time RT-PCR as described above.
For orientation: In qPCR the cycle at which signal appears reflects the starting amount.

[2] abbreviates: PO, free base or salt form as labelled.

Where two headings read alike, the source gives them in different places.

T2 sequence (O60674 whole entry): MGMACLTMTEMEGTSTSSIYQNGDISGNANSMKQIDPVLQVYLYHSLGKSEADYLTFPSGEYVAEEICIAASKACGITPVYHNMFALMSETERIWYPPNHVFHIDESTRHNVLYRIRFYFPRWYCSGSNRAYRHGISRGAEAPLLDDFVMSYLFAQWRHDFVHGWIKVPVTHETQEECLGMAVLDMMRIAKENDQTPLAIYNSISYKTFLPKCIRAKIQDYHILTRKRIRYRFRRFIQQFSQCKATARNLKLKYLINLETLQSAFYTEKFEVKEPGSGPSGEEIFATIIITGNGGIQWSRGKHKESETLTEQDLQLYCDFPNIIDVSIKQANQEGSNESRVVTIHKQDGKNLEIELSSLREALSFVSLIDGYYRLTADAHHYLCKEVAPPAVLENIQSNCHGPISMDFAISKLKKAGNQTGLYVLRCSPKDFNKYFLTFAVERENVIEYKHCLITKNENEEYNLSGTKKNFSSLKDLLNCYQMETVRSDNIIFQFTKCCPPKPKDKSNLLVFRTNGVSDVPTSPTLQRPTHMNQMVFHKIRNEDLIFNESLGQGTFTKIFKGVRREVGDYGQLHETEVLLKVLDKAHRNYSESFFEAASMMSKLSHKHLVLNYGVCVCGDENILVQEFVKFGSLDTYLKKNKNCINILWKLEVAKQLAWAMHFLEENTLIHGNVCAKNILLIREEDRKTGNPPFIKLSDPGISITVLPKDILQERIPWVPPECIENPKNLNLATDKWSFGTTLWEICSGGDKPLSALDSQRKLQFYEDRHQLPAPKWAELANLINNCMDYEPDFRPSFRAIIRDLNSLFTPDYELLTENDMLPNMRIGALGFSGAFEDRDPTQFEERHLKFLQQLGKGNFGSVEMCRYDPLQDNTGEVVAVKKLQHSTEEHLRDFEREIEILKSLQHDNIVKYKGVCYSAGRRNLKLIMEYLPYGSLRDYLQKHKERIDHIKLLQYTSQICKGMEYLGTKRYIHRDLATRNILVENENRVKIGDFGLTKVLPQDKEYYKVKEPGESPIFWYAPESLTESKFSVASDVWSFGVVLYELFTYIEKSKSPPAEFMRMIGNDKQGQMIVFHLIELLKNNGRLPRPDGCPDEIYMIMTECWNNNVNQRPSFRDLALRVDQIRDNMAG

One may read the IC50 as the midpoint of a concentration-inhibition curve. A word on the Cmax: it is the highest concentration seen after dosing. For orientation: Tmax means the time from dosing to the highest level. `COc1cc(Nc2nccc(Nc3cccc(C4(C#N)CC4)c3)n2)ccc1N1CCN(C)CC1` [Compound 4, 1-(3-(2-(3-methoxy-4-(4-methylpiperazin-1-yl)phenylamino)pyrimidin-4-ylamino)phenyl)cyclopropanecarbonitrile]: the IC50 at ALK2 was 10 to 1000 nM. The compound also showed a F in series [1] (IV) of 100.0 % IV. For the same compound, in series [1] (setting [2]), the F turned out to be 15.4 % IV, the AUC 0-inf turned out to be 852 ng·h/mL, the Cmax was determined as 118 ng/mL and the Tmax was 2 h. Besides, the half-life in series [1] (setting [2]) is 6.5 h. Also, in series [1] (female rats, 24 hours), the “plasma concentration levels after 24 hours” value was “remain high”. Besides, in series [1] (iv), the AUC 0-inf was determined as 1380 ng·h/mL, the Cmax is 996 ng/mL, the Tmax turned out to be 0 h and the half-life was 9.2 h. Moreover, the IC50 at JAK2 kinase is below 10 nM. The “hepcidin expression in mice compared to compound A” value with hepcidin expression is reported as “inhibit hepcidin expression to a greater extent than compound A”.

(Values after US10202356B2, “JAK2 and ALK2 inhibitors and methods for their use” (Tolero Pharmaceuticals, Inc., priority 2013, dated 2019).)
